Assay results taken from PubChem BioAssay (NCI).
Values joined by “and” are separate entries in the source; they are usually repeats but may differ in a detail not shown here. Identical values can stand only once.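 1) Cells in 96-well plates. 2) Compound, 48 h, 5 concentrations. 3) Linear interpolation between surrounding doses. 4) Unreached endpoint = highest concentration. GI50 marks 50% less growth. TGI is the concentration that stops growth completely.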

What was measured:
Test in all cases: growth of human tumour cells (NCI), 48 h
NCI-H226 lung = tested on: NCI-H226 lung
PC-3 prostate = tested on: PC-3 prostate
M14 melanoma = tested on: M14 melanoma
NCI/ADR-RES ovarian = tested on: NCI/ADR-RES ovarian
HCT-15 colon = tested on: HCT-15 colon
IGROV1 ovarian = tested on: IGROV1 ovarian
EKVX NSCLC = tested on: EKVX NSCLC
HOP-62 NSCLC = tested on: HOP-62 NSCLC
CCRF-CEM leukemia = tested on: CCRF-CEM leukemia
MOLT-4 leukemia = tested on: MOLT-4 leukemia

| SMILES | GI50 (NCI-H226 lung) [µM] | TGI (NCI-H226 lung) [µM] | GI50 (PC-3 prostate) [µM] | TGI (PC-3 prostate) [µM] | GI50 (M14 melanoma) [µM] | TGI (M14 melanoma) [µM] | GI50 (NCI/ADR-RES ovarian) | TGI (NCI/ADR-RES ovarian) | GI50 (HCT-15 colon) | TGI (HCT-15 colon) | GI50 (IGROV1 ovarian) [µM] | TGI (IGROV1 ovarian) [µM] | GI50 (EKVX NSCLC) [µM] | TGI (EKVX NSCLC) [µM] | GI50 (HOP-62 NSCLC) [µM] | TGI (HOP-62 NSCLC) [µM] | GI50 (CCRF-CEM leukemia) [µM] | TGI (CCRF-CEM leukemia) [µM] | GI50 (MOLT-4 leukemia) [µM] | TGI (MOLT-4 leukemia) [µM] |
| --- | --- | --- | --- | --- | --- | --- | --- | --- | --- | --- | --- | --- | --- | --- | --- | --- | --- | --- | --- | --- |
| CCC(c1cccc(O)c1)C(CC)c1cccc(O)c1 (stereo not given) | 12.1 | 26.3 | 2.28 | 12.5 | 2.93 | 13.2 | 3.53 µM | 14.1 µM | 3.52 µM | 14.8 µM | 10.8 | 25.3 | 4.54 | 35.7 | 4.89 | 17.4 |  |  |  |  |
| Cc1cc(-c2nnc3n2CCCCC3)c(C)n1-c1ccc(Cl)c(Cl)c1 |  |  | 11 | 57.1 | 14.9 | 33.5 | 11.9 µM | 47.8 µM | 11.7 µM | > 100 µM | 17.9 | 42.7 |  |  | 16.8 | 32.4 | 18.5 | 71.5 | 15 | 42.9 |
| CCN(CC)c1ccc2c(c1)Nc1cc(=C(C#N)C#N)c3ccccc3c1=N2 |  | > 100 |  |  |  | > 100 |  |  |  |  |  | > 100 |  | > 100 |  | > 100 |  |  |  | > 100 |
| Cc1c2cc[n+](C)cc2c(C)c2c1[nH]c1ccc(O)c(OCC(F)(F)F)c12 |  | 4.08 |  |  |  | 15.7 |  |  |  |  |  | 23.1 |  | 20.1 |  | 5.28 |  | 28.4 |  | 22.1 |
| S=c1nc(-c2cccnc2)[nH][nH]1 |  |  |  |  |  | > 100 |  |  |  | > 100 µM |  |  |  |  |  | > 100 |  | > 100 |  |  |
| O=C1NC2(CN3CCC2CC3)C(=O)N1CN(Cc1ccccc1)c1ccccc1 (stereo not given) |  | > 100 |  | > 100 |  | > 100 |  | > 100 µM |  | > 100 µM |  | > 100 |  | > 100 |  | > 100 |  |  |  | > 100 |
| COc1ccc2c(c1)[n+]([O-])c(/C(C)=N/NC(=O)CC#N)c[n+]2[O-] |  | > 100 |  |  |  | > 100 |  |  |  | > 100 µM |  | > 100 |  | > 100 |  | > 100 |  | > 100 |  | > 100 |
| CCOC(=O)[C@H]1Nc2ccc(OC)cc2C2c3ccccc3CC21 (stereo not given in full) |  | > 100 |  |  |  | > 100 |  |  |  | > 100 µM |  | > 100 |  |  |  | > 100 |  |  |  | > 100 |
| CN1C(=O)C(Cl)(C(Cl)(Cl)S(=O)(=O)O)C(=O)c2ccccc21 (stereo not given) |  | > 100 |  |  |  | > 100 |  |  |  |  |  | > 100 |  | > 100 |  | > 100 |  | > 100 |  | > 100 |
| O=C([CH-]C(=O)C(F)(F)F)c1ccccc1.O=C([CH-]C(=O)C(F)(F)F)c1ccccc1.O=C([CH-]C(=O)C(F)(F)F)c1ccccc1.O=C([CH-]C(=O)C(F)(F)F)c1ccccc1.[Eu+3].c1ccncc1 | 15.6 | 79 |  |  | 9.52 | 39.5 |  |  | 4.98 µM | > 100 µM | 7.88 | > 100 | 11.4 | 58.6 | 8.37 | 64 | 2.64 | 32.7 | 4.26 | 36.2 |
| COc1cc(Br)c(C=Nc2cccc3ccc(OS(=O)(=O)c4cccc([N+](=O)[O-])c4)cc23)cc1OC |  | 84.1 |  |  |  |  |  |  |  | > 100 µM |  | > 100 |  | > 100 |  | > 100 |  | > 100 |  | > 100 |
| CCOC(=O)CC1NC(=O)CS1 (stereo not given) |  | 48.1 |  |  |  | > 100 |  |  |  | 45.1 µM |  | > 100 |  | > 100 |  | > 100 |  | > 100 |  | > 100 |
| O=c1ccc(=O)c2c(=O)c3ccccc3c(=O)c1=2 |  |  |  |  |  | > 100 |  |  |  | > 100 µM |  | > 100 |  | > 100 |  | > 100 |  | > 100 |  | > 100 |
| CCN(CC)CCCC(C)Nc1c2ccc(C)cc2nc2ccc(OC)cc12 (stereo not given) |  |  | 1.94 | 10.8 | 1.58 | 3.18 | 4.03 µM | 22.7 µM | 2.32 µM | 13.1 µM | 0.514 | 3.12 | 2.35 | 16 | 1.37 | 3.49 | 1.82 | 9.9 | 0.777 | 13.6 |
| BrC1(Br)C2/C=C\CCCCC21 (stereo not given) |  | > 100 |  |  |  |  |  |  |  |  |  | > 100 |  | > 100 |  | > 100 |  | > 100 |  | > 100 |
| N.N.N.N.N.N.O=N[O-].[Br-].[Co+3].[Co+3].[OH3+].[OH3+] | > 100 | > 100 |  |  | > 100 | > 100 |  |  | > 100 µM | > 100 µM | > 100 | > 100 | 74.3 | > 100 |  |  | > 100 | > 100 | > 100 | > 100 |
| c1cc(CNC2C3CCC(C3)C2c2c[nH]c3ccccc23)cc(CNC2C3CCC(C3)C2c2c[nH]c3ccccc23)c1 (stereo not given) |  |  |  | 2.7 |  | 5.3 | 1.21 µM and 0.607 µM | 2.6 µM and 1.99 µM | 0.325 µM and 0.301 µM | 1.01 µM and 1.12 µM |  | 2.69 |  | 3.34 |  |  |  | > 100 | 1.07 | 3.38 |
| CCOc1ccccc1NC(=O)CCc1nc(=S)[nH][nH]1 |  | > 100 |  |  |  | > 100 |  |  |  | > 100 µM |  | > 100 |  | > 100 |  | > 100 |  | > 100 |  | > 100 |
| O=C1C2Cc3ccccc3CN2C(=O)N1CCN1CCCC1 (stereo not given) |  | > 100 |  |  |  | > 100 |  |  |  | > 100 µM |  | > 100 |  |  |  | > 100 |  | > 100 |  | > 100 |
| CCCCCCN(CCCCCC)CC(O)c1ccc2c3c(cccc13)CC2 (stereo not given) | 8.06 | 22.9 | 10.9 | 28.7 | 3.95 | 17 | 10.6 µM | 26.2 µM | 6.63 µM | 25.1 µM |  |  | 6.64 | 23.1 | 12.1 | 24.7 |  |  | 4.36 | 22.7 |
| O=C1CCC(O)=C1O |  | > 100 |  |  |  | > 100 |  |  |  | > 100 µM |  | > 100 |  | > 100 |  | > 100 |  | > 100 |  | > 100 |
